Measured values from patent US4835160A, “Derivatives of pyridoindole, having anti-tumor properties” (Sanofi, priority 1986, dated 1989).

Legend:
melanoma B 16 = assay: Test for melanoma B 16; assay type: in vivo, BDF1 hybrid mice; settings: D1-D9; for Number of survivors: day D60; for T/C %: survival time
Outline: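 BDF1 mice inoculated i.p. with 0.5 ml B16 melanoma homogenate (1 g tumour in 10 ml physiological serum); compound given i.p. daily D1–D9, Cis-platine positive control under same conditions. Surviving animals counted on D60; activity as survival increase vs untreated controls (T/C), toxicity if T/C ≤85%.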

leukemia P388 = assay: Test for leukemia P388, IP/IP, D1; assay type: in vivo, CDF1 hybrid mice; settings: for Number of survivors: day D30; for T/C %: survival time
Outline: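 CDF1 hybrid mice inoculated i.p. on D0 with 10^6 P388 leukemia cells; compound in distilled water given i.p. once on D1, 10 mice per group. Activity as increase in survival time versus untreated controls (T/C); survivors counted on D30. 5-fluorouracil positive control under same conditions.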

in vivo [1] = assay: in vivo; parameters: species or system CDF1 hybrid mice; settings: mouse, ip
From the text: The compounds of the invention benefit from a good tolerance and a weak toxicity.
Thus the administration, to healthy CDF1 hybrid mice, in a single injection by intraperitoneal route, of the compounds under test, has enabled it to be established that the product is perfectly tolerated at a high dosage since the survival rate of the animals of the experiment was 100 out of 100 thirteen days after administration.

leukemia P 388 = assay: Test of leukemia P 388; IP/IP, D1-5; assay type: in vivo, CDF1 hybrid mice; settings: D1-D5; for Number of survivors: day D30; for T/C %: survival time
Outline: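 CDF1 hybrid mice received 10^6 P 388 cells intraperitoneally, then compound in distilled water by intraperitoneal route daily D1-D5, 10 mice per group, 5-fluorouracil as positive control. Activity judged as T/C survival time versus untreated controls, survivors counted at D30; T/C ≤85% or day 5 minus day 1 weight change ≤ −4 g counted as toxic.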

in vivo [2] = assay: in vivo; parameters: species or system female CDF1 hybrid mice; settings: mouse, iv
Procedure: In addition the administration, to healthy female CDF1 hybrid mice, in a single injection by intravenous route with a perfusor, lasting 4 minutes, of the compounds under test in solution in physiological serum at a rate of 0.1 ml of solution per 10 g weight of the animals has enabled it to be established that the compounds are also well tolerated at a high dosage in these conditions.

Cc1cnc(NCCCN(C)C)c2c1[nH]c1ccc(O)cc12 [Derivative No. 10, 1-(3-dimethylaminopropylamino)-8-hydroxy-4-methyl-5H-pyrido[4,3-b]indole]
Median day of survival (melanoma B 16; 1.25 mg/kg IP): 32.0 days
Variation by weight (g) (melanoma B 16; 1.25 mg/kg IP): +2.8 g
Number of survivors (melanoma B 16; 1.25 mg/kg IP): 0/10
T/C % (melanoma B 16; 1.25 mg/kg IP): 116%
Median day of survival (melanoma B 16; 2.5 mg/kg IP): 38.75 days
Variation by weight (g) (melanoma B 16; 2.5 mg/kg IP): +1.8 g
Number of survivors (melanoma B 16; 2.5 mg/kg IP): 0/10
T/C % (melanoma B 16; 2.5 mg/kg IP): 141%
Median day of survival (melanoma B 16; 5 mg/kg IP): 44.0 days
Variation by weight (g) (melanoma B 16; 5 mg/kg IP): +2.4 g
Number of survivors (melanoma B 16; 5 mg/kg IP): 0/10
T/C % (melanoma B 16; 5 mg/kg IP): 160%
Median day of survival (melanoma B 16; 10 mg/kg IP): 11.7 days
Variation by weight (g) (melanoma B 16; 10 mg/kg IP): +0.5 g
Number of survivors (melanoma B 16; 10 mg/kg IP): 0/10
T/C % (melanoma B 16; 10 mg/kg IP): 42%
Median day of survival (leukemia P388; 5 mg/kg IP): 15.3 days
Variation by weight (leukemia P388; 5 mg/kg IP): -0.1 g
Number of survivors (leukemia P388; 5 mg/kg IP): 0/10
T/C % (leukemia P388; 5 mg/kg IP): 139%
Median day of survival (leukemia P388; 10 mg/kg IP): 15.25 days
Variation by weight (g) (leukemia P388; 10 mg/kg IP): +0.3 g
Number of survivors (leukemia P388; 10 mg/kg IP): 0/10
T/C % (leukemia P388; 10 mg/kg IP): 139%
Median day of survival (leukemia P388; 20 mg/kg IP): 15.6 days
Variation by weight (leukemia P388; 20 mg/kg IP): -0.8 g
Number of survivors (leukemia P388; 20 mg/kg IP): 0/10
T/C % (leukemia P388; 20 mg/kg IP): 142%
Median day of survival (leukemia P388; 40 mg/kg IP): 15.3 days
Variation by weight (leukemia P388; 40 mg/kg IP): -1.4 g
Number of survivors (leukemia P388; 40 mg/kg IP): 0/10
T/C % (leukemia P388; 40 mg/kg IP): 139%
survival at 312 h (in vivo [1]; 100 mg/kg): 100%
Median day of survival (leukemia P 388; 0.625 mg/kg IP): 15.75 days
Variation by weight (g) (leukemia P 388; 0.625 mg/kg IP): +4.1 g
Number of survivors (leukemia P 388; 0.625 mg/kg IP): 0/10
T/C % (leukemia P 388; 0.625 mg/kg IP): 139%
Median day of survival (leukemia P 388; 1.25 mg/kg IP): 17.0 days
Variation by weight (g) (leukemia P 388; 1.25 mg/kg IP): +3.3 g
Number of survivors (leukemia P 388; 1.25 mg/kg IP): 0/10
T/C % (leukemia P 388; 1.25 mg/kg IP): 150%
Median day of survival (leukemia P 388; 2.5 mg/kg IP): 16.4 days
Variation by weight (g) (leukemia P 388; 2.5 mg/kg IP): +3.2 g
Number of survivors (leukemia P 388; 2.5 mg/kg IP): 0/10
T/C % (leukemia P 388; 2.5 mg/kg IP): 145%
Median day of survival (leukemia P 388; 5 mg/kg IP): 21.0 days
Variation by weight (g) (leukemia P 388; 5 mg/kg IP): +2.0 g
Number of survivors (leukemia P 388; 5 mg/kg IP): 1/10
T/C % (leukemia P 388; 5 mg/kg IP): 186%
Median day of survival (leukemia P 388; 10 mg/kg IP): 16.75 days
Variation by weight (g) (leukemia P 388; 10 mg/kg IP): +1.8 g
Number of survivors (leukemia P 388; 10 mg/kg IP): 0/10
T/C % (leukemia P 388; 10 mg/kg IP): 148%
Median day of survival (leukemia P 388; 20 mg/kg IP): 7.8 days
Variation by weight (leukemia P 388; 20 mg/kg IP): -0.4 g
Number of survivors (leukemia P 388; 20 mg/kg IP): 0/10
T/C % (leukemia P 388; 20 mg/kg IP): 69%
survival at 192 h (in vivo [2]; 25 mg/kg): 100%
survival at 192 h (in vivo [2]; 40 mg/kg): 40%

Cc1cnc(NCCCN(C)C)c2c3cc(O)ccc3n(C)c12 [Derivative No. 14, 4,5-dimethyl 1(3-dimethylaminopropylamino)-8-hydroxy-5H-pyrido[4,3-b]indole]
Median day of survival (melanoma B 16; 1.25 mg/kg IP): 29.75 days
Variation by weight (g) (melanoma B 16; 1.25 mg/kg IP): +1.0 g
Number of survivors (melanoma B 16; 1.25 mg/kg IP): 0/10
T/C % (melanoma B 16; 1.25 mg/kg IP): 123%
Median day of survival (melanoma B 16; 2.5 mg/kg IP): 32.6 days
Variation by weight (g) (melanoma B 16; 2.5 mg/kg IP): +0.1 g
Number of survivors (melanoma B 16; 2.5 mg/kg IP): 0/10
T/C % (melanoma B 16; 2.5 mg/kg IP): 134%
Median day of survival (melanoma B 16; 5 mg/kg IP): 50.0 days
Variation by weight (melanoma B 16; 5 mg/kg IP): -0.2 g
Number of survivors (melanoma B 16; 5 mg/kg IP): 1/10
T/C % (melanoma B 16; 5 mg/kg IP): 206%
Median day of survival (melanoma B 16; 10 mg/kg IP): 11.75 days
Variation by weight (melanoma B 16; 10 mg/kg IP): -1.9 g
Number of survivors (melanoma B 16; 10 mg/kg IP): 0/10
T/C % (melanoma B 16; 10 mg/kg IP): 48%
Median day of survival (leukemia P388; 5 mg/kg IP): 19.75 days
Variation by weight (leukemia P388; 5 mg/kg IP): -1.2 g
Number of survivors (leukemia P388; 5 mg/kg IP): 0/10
T/C % (leukemia P388; 5 mg/kg IP): 173%
Median day of survival (leukemia P388; 10 mg/kg IP): 19.0 days
Variation by weight (leukemia P388; 10 mg/kg IP): -1.4 g
Number of survivors (leukemia P388; 10 mg/kg IP): 1/10
T/C % (leukemia P388; 10 mg/kg IP): 167%
Median day of survival (leukemia P388; 20 mg/kg IP): 18.75 days
Variation by weight (leukemia P388; 20 mg/kg IP): -2.5 g
Number of survivors (leukemia P388; 20 mg/kg IP): 1/10
T/C % (leukemia P388; 20 mg/kg IP): 164%
survival at 312 h (in vivo [1]; 25 mg/kg): 100%
Median day of survival (leukemia P 388; 2.5 mg/kg IP): 19.25 days
Variation by weight (g) (leukemia P 388; 2.5 mg/kg IP): +0.9 g
Number of survivors (leukemia P 388; 2.5 mg/kg IP): 1/10
T/C % (leukemia P 388; 2.5 mg/kg IP): 166%
Median day of survival (leukemia P 388; 5 mg/kg IP): 22 days
Variation by weight (leukemia P 388; 5 mg/kg IP): -1.0 g
Number of survivors (leukemia P 388; 5 mg/kg IP): 3/10
T/C % (leukemia P 388; 5 mg/kg IP): 190%
Median day of survival (leukemia P 388; 10 mg/kg IP): 11.75 days
Variation by weight (leukemia P 388; 10 mg/kg IP): -1.7 g
Number of survivors (leukemia P 388; 10 mg/kg IP): 0/10
T/C % (leukemia P 388; 10 mg/kg IP): 102%
Median day of survival (leukemia P 388; 20 mg/kg IP): 7.4 days
Variation by weight (leukemia P 388; 20 mg/kg IP): -4.4 g
Number of survivors (leukemia P 388; 20 mg/kg IP): 0/10
T/C % (leukemia P 388; 20 mg/kg IP): 64%
survival at 192 h (in vivo [2]; 50 mg/kg): 100%
